Test results from patent publication US10253015B2, “Pyridinyl quinolinone derivatives as mutant-isocitrate dehydrogenase inhibitors” (FORMA TM2, Inc., priority 2014, dated 2019).
pIC50: −log10 of the molar value. Like-named read-outs stand apart in the source and are kept apart here.

What was measured:
[1] = target: IDH1-R132H recombinant protein (Homo sapiens (Human), UniProt O75874, R132H); assay: IDH1-R132H enzymatic assay; format: biochemical
Description: (§1) Assays were performed in a 384-well black plate. […] After the plate was centrifuged briefly, an aliquot of 10 μL of 2 mM α-ketoglutarate and 20 μM NADPH solution prepared in assay buffer was then added to each well and the reaction was maintained at 25° C. for 45 minutes. An aliquot of 10 μL of diaphorase solution (0.15 U/mL diaphorase and 30 μM Resazurin in assay buffer) was added to each well. […] The IC50 of a given compound was calculated by fitting the dose response curve of inhibition of NADPH consumption at a given concentration with the four parameter logistic equation.

[2] = target: IDH1-R132C recombinant protein (Homo sapiens (Human), UniProt O75874, R132C); assay: IDH1-R132C enzymatic assay; format: biochemical
Description: as §1

[3] = system: HCT116 isogenic IDH1-R132H mutant cells; assay: Cellular 2-HG assay using HCT116 mutant IDH1 cells (R132H); format: cell-based; settings: Homo sapiens, HCT-116; cellular 2-HG inhibition, 24 hours, RapidFire mass spectrometry; read-out: HCT IDH1 R132H Range IC50
Description: (§2) HCT116 isogenic IDH1-R132H and IDH1-R132C mutant cells were cultured in growth media (McCoy's 5 A, 10% fetal bovine serum, 1× antibiotic-antimycotic solution and 0.3 mg/mL G418) in 5% CO2 in an incubator at 37° C. To prepare the assay, cells were trypsinized and resuspended in assay media (McCoy's 5 A with no L-glutamine, 10% fetal bovine serum, 1× antibiotic-antimycotic solution and 0.3 mg/mL G418). An aliquot of 10,000 cells/100 μL was transferred to each well of a clear 96-well tissue culture plate. The cells were incubated in 5% CO2 at 37° C. in an incubator overnight to allow for proper cell attachment. An aliquot of 50 μL of compound containing assay media were then added to each well and the assay plate was kept in 5% CO2 at 37° C. in an incubator for 24 hours. The media was then removed from each well and 150 μL of a methanol/water mixture (80/20 v/v) was added to each well. The plates were kept at −80° C. freezer overnight to allow for complete cell lysis. An aliquot of 125 μL of extracted supernatant was analyzed by RapidFire high-throughout-mass spectrometry (Agilent) to determine the cellular 2-HG level. The IC50 of a given compound was calculated by fitting the dose response curve of cellular 2-HG inhibition at a given concentration with the four parameter logistic equation

[4] = system: HCT116 isogenic IDH1-R132C mutant cells; assay: Cellular 2-HG assay using HCT116 mutant IDH1 cells (R132C); format: cell-based; settings: Homo sapiens, HCT-116; cellular 2-HG inhibition, 24 hours, RapidFire mass spectrometry; read-out: HCT IDH1 R132C Range IC50
Description: as §2

[5] = inhibition of NADPH consumption, diaphorase/resazurin readout, read-out: Enzyme IDH1 R132H Range IC50
[6] = inhibition of NADPH consumption, diaphorase/resazurin readout, read-out: Enzyme IDH1 R132C Range IC50

Sequence of IDH1-R132H recombinant protein (O75874 whole entry R132H): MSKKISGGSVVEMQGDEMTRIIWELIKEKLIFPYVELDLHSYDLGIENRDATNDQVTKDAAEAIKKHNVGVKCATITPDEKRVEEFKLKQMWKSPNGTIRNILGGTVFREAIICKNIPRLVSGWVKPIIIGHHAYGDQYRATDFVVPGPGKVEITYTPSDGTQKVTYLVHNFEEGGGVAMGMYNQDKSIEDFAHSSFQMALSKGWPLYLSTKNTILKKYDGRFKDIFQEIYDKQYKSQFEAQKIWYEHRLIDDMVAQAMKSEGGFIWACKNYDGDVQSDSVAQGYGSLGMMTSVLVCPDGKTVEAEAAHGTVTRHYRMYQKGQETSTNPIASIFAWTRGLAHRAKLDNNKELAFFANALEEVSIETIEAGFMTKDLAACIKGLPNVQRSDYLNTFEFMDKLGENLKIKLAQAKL
Sequence of IDH1-R132C recombinant protein (O75874 whole entry R132C): as the sequence (O75874 whole entry R132H) above, with H132C counted along it

Compound: COc1cc2[nH]c(=O)c(CNc3ccc(C#N)c(C)n3)cc2cc1Cl [Compound I-83, 6-{[(6-chloro-7-methoxy-2-oxo-1,2-dihydroquinolin-3-yl)methyl]amino}-2-methylpyridine-3-carbonitrile]
- pIC50 [1, 5]: > 7.00
- pIC50 [2, 6]: < 5.00
- pIC50 [3]: < 6.00
- pIC50 [4]: < 6.00

Compound: Cc1nc(N[C@@H](C)c2cc3cc(Cl)c(OCc4ccccn4)cc3[nH]c2=O)ccc1C#N [Compound I-28, 6-{[(1S)-1-[6-chloro-2-oxo-7-(pyridin-2-ylmethoxy)-1,2-dihydroquinolin-3-yl]ethyl]amino}-2-methylpyridine-3-carbonitrile]
- pIC50 [1, 5]: > 7.00
- pIC50 [2, 6]: > 7.00
- pIC50 [3]: 7.00 to 8.00
- pIC50 [4]: > 8.00

Compound: C[C@H](Nc1nccc(N2CCOC2=O)c1F)c1cc2cc(Cl)ccc2[nH]c1=O [Compound I-14, 6-chloro-3-[(1S)-1-{[3-fluoro-4-(2-oxo-1,3-oxazolidin-3-yl)pyridin-2-yl]amino}ethyl]-1,2-dihydroquinolin-2-one]
- pIC50 [1, 5]: > 7.00
- pIC50 [2, 6]: 6.00 to 7.00
- pIC50 [3]: 6.00 to 7.00
- pIC50 [4]: 6.00 to 7.00

Compound: Cc1nc(NC(C)c2cc3cc(Cl)c(F)cc3[nH]c2=O)ccc1C#N (centres unmarked) [Compound I-21, 6-{[1-(6-chloro-7-fluoro-2-oxo-1,2-dihydroquinolin-3-yl)ethyl]amino}-2-methylpyridine-3-carbonitrile]
- pIC50 [1, 5]: > 7.00
- pIC50 [2, 6]: 6.00 to 7.00
- pIC50 [3]: 6.00 to 7.00
- pIC50 [4]: 6.00 to 7.00

Compound: Cc1nc(N[C@@H](C)c2cc3cc(Cl)c(F)cc3[nH]c2=O)ccc1C#N [Compound I-22, 6-{[(1S)-1-(6-chloro-7-fluoro-2-oxo-1,2-dihydroquinolin-3-yl)ethyl]amino}-2-methylpyridine-3-carbonitrile]
- pIC50 [1, 5]: > 7.00
- pIC50 [2, 6]: 6.00 to 7.00
- pIC50 [3]: > 8.00
- pIC50 [4]: 6.00 to 7.00

Compound: COc1nc(C#N)ccc1N[C@@H](C)c1cc2cc(Cl)ccc2[nH]c1=O [Compound I-7, 5-{[(1S)-1-(6-chloro-2-oxo-1,2-dihydroquinolin-3-yl)ethyl]amino}-6-methoxypyridine-2-carbonitrile]
- pIC50 [1, 5]: > 7.00
- pIC50 [2, 6]: 5.00 to 6.00
- pIC50 [3]: 6.00 to 7.00
- pIC50 [4]: 6.00 to 7.00

Compound: Cc1nc(N[C@@H](C)c2cc3cc(Cl)ccc3[nH]c2=O)ccc1C#N [Compound I-4, (S)-6-(1-(6-chloro-2-oxo-1,2-dihydroquinolin-3-yl)ethylamino)-2-methyl nicotinonitrile]
- pIC50 [1, 5]: > 7.00
- pIC50 [2, 6]: 6.00 to 7.00
- pIC50 [3]: 6.00 to 7.00
- pIC50 [4]: 6.00 to 7.00

Compound: Cc1nc(NC(C)c2cc3cc(Cl)ccc3[nH]c2=O)ccc1C#N (centres unmarked) [Compound I-9, 6-{[1-(6-chloro-2-oxo-1,2-dihydroquinolin-3-yl)ethyl]amino}-2-methylpyridine-3-carbonitrile]
- pIC50 [1, 5]: 6.00 to 7.00
- pIC50 [2, 6]: 6.00 to 7.00
- pIC50 [3]: 6.00 to 7.00
- pIC50 [4]: < 6.00

Compound: Cc1nc(NC(C)c2cc3cc(Cl)c(OCC4CC(F)(F)C4)cc3[nH]c2=O)ccc1C#N (centres unmarked) [Compound I-30, 6-[(1-{6-chloro-7-[(3,3-difluorocyclobutyl)methoxy]-2-oxo-1,2-dihydroquinolin-3-yl}ethyl)amino]-2-methylpyridine-3-carbonitrile]
- pIC50 [1, 5]: > 7.00
- pIC50 [2, 6]: 6.00 to 7.00
- pIC50 [3]: 7.00 to 8.00
- pIC50 [4]: 7.00 to 8.00

Compound: Cc1nc(NC(C)c2cc3cc(Cl)c(OCc4ccccn4)cc3[nH]c2=O)ccc1C#N (centres unmarked) [Compound I-29, 6-({1-[6-chloro-2-oxo-7-(pyridin-2-ylmethoxy)-1,2-dihydroquinolin-3-yl]ethyl}amino)-2-methylpyridine-3-carbonitrile]
- pIC50 [1, 5]: > 7.00
- pIC50 [3]: 7.00 to 8.00
- pIC50 [4]: 7.00 to 8.00

Compound: COc1nc(N[C@@H](C)c2cc3cc(Cl)ccc3[nH]c2=O)ccc1C#N [Compound I-6, 6-{[(1S)-1-(6-chloro-2-oxo-1,2-dihydroquinolin-3-yl)ethyl]amino}-2-methoxypyridine-3-carbonitrile]
- pIC50 [1, 5]: > 7.00
- pIC50 [2, 6]: 6.00 to 7.00
- pIC50 [3]: 6.00 to 7.00
- pIC50 [4]: 7.00 to 8.00

Compound: COc1cc(N[C@@H](C)c2cc3cc(Cl)ccc3[nH]c2=O)ncc1C#N [Compound I-1, 6-{[(1S)-1-(6-chloro-2-oxo-1,2-dihydroquinolin-3-yl)ethyl]amino}-4-methoxypyridine-3-carbonitrile]
- pIC50 [4]: 6.00 to 7.00

Compound: COc1cc2[nH]c(=O)c([C@H](C)Nc3cc(OC)c(C#N)cn3)cc2cc1Cl [Compound I-25, 6-{[(1S)-1-(6-chloro-7-methoxy-2-oxo-1,2-dihydroquinolin-3-yl)ethyl]amino}-4-methoxypyridine-3-carbonitrile]
- pIC50 [1]: > 7.00
- pIC50 [2]: > 7.00
- pIC50 [3]: 7.00 to 8.00
- pIC50 [4]: 6.00 to 7.00

Compound: COc1cc2[nH]c(=O)c([C@H](C)Nc3ccc(C#N)c(OC)n3)cc2cc1Cl [Compound I-26, 6-{[(1S)-1-(6-chloro-7-methoxy-2-oxo-1,2-dihydroquinolin-3-yl)ethyl]amino}-2-methoxypyridine-3-carbonitrile]
- pIC50 [1, 5]: > 7.00
- pIC50 [2, 6]: > 7.00
- pIC50 [3]: > 8.00
- pIC50 [4]: 7.00 to 8.00

Compound: COc1cc2[nH]c(=O)c([C@H](C)Nc3cc(C)c(C#N)cn3)cc2cc1Cl [Compound I-27, 6-{[(1S)-1-(6-chloro-7-methoxy-2-oxo-1,2-dihydroquinolin-3-yl)ethyl]amino}-4-methylpyridine-3-carbonitrile]
- pIC50 [1, 5]: > 7.00
- pIC50 [2, 6]: > 7.00
- pIC50 [3]: 7.00 to 8.00
- pIC50 [4]: 6.00 to 7.00

Compound: Cc1cc(N[C@@H](C)c2cc3cc(Cl)ccc3[nH]c2=O)ncc1C#N [Compound I-5, (S)-6-((1-(6-chloro-2-oxo-1,2-dihydroquinolin-3-yl)ethyl)amino)-4-methyl nicotinonitrile]
- pIC50 [1, 5]: > 7.00
- pIC50 [2, 6]: 6.00 to 7.00
- pIC50 [3]: 6.00 to 7.00
- pIC50 [4]: 6.00 to 7.00

Compound: Cc1c(-c2ccnc(N[C@@H](C)c3cc4cc(Cl)ccc4[nH]c3=O)c2)cnn1C [Compound I-40, 6-chloro-3-[(1S)-1-{[4-(1,5-dimethyl-1H-pyrazol-4-yl)pyridin-2-yl]amino}ethyl]-1,2-dihydroquinolin-2-one]
- pIC50 [1, 5]: 6.00 to 7.00
- pIC50 [2, 6]: 6.00 to 7.00
- pIC50 [3]: 6.00 to 7.00
- pIC50 [4]: 6.00 to 7.00

Compound: Cc1nc(NCc2cc3cc(Cl)ccc3[nH]c2=O)ccc1C#N [Compound I-58, 6-{[(6-chloro-2-oxo-1,2-dihydroquinolin-3-yl)methyl]amino}-2-methylpyridine-3-carbonitrile]
- pIC50 [1, 5]: > 7.00
- pIC50 [2, 6]: 6.00 to 7.00
- pIC50 [3]: 6.00 to 7.00
- pIC50 [4]: < 6.00
